Reference: PubChem BioAssay (NCI)
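Tested at 5 concentrations; 48 h exposure; 96-well plates; endpoints linearly interpolated, else capped at highest concentration. The concentration for 50% growth inhibition is given as GI50. TGI: total growth inhibition.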

Key:
Assay in all cases: growth of human tumour cells (NCI), 48 h
T-47D breast = tested on: T-47D breast
MCF7 breast = tested on: MCF7 breast
UACC-62 melanoma = tested on: UACC-62 melanoma
U251 CNS = tested on: U251 CNS
NCI-H460 lung = tested on: NCI-H460 lung
786-0 renal = tested on: 786-0 renal
OVCAR-3 ovarian = tested on: OVCAR-3 ovarian
UACC-257 melanoma = tested on: UACC-257 melanoma
HCC-2998 colon = tested on: HCC-2998 colon
IGROV1 ovarian = tested on: IGROV1 ovarian
COLO 205 colon = tested on: COLO 205 colon
K-562 leukemia = tested on: K-562 leukemia
NCI/ADR-RES ovarian = tested on: NCI/ADR-RES ovarian
HCT-116 colon = tested on: HCT-116 colon
A498 renal = tested on: A498 renal
SF-539 CNS = tested on: SF-539 CNS
SN12C renal = tested on: SN12C renal
MOLT-4 leukemia = tested on: MOLT-4 leukemia
SK-MEL-5 melanoma = tested on: SK-MEL-5 melanoma
UO-31 renal = tested on: UO-31 renal
MALME-3M melanoma = tested on: MALME-3M melanoma
SK-OV-3 ovarian = tested on: SK-OV-3 ovarian
OVCAR-8 ovarian = tested on: OVCAR-8 ovarian
SNB-75 CNS = tested on: SNB-75 CNS
SF-295 CNS = tested on: SF-295 CNS
NCI-H522 lung = tested on: NCI-H522 lung
SF-268 CNS = tested on: SF-268 CNS
SK-MEL-2 melanoma = tested on: SK-MEL-2 melanoma
ACHN renal = tested on: ACHN renal
SR leukemia = tested on: SR leukemia
HOP-62 NSCLC = tested on: HOP-62 NSCLC
NCI-H226 lung = tested on: NCI-H226 lung
M14 melanoma = tested on: M14 melanoma
A549 NSCLC = tested on: A549 NSCLC
RPMI-8226 leukemia = tested on: RPMI-8226 leukemia
KM12 colon = tested on: KM12 colon
RXF 393 renal = tested on: RXF 393 renal
HT29 colon = tested on: HT29 colon
SW-620 colon = tested on: SW-620 colon
BT-549 breast = tested on: BT-549 breast
HL-60(TB) leukemia = tested on: HL-60(TB) leukemia
NCI-H23 lung = tested on: NCI-H23 lung
CAKI-1 renal = tested on: CAKI-1 renal
OVCAR-4 ovarian = tested on: OVCAR-4 ovarian
MDA-MB-435 = tested on: MDA-MB-435
PC-3 prostate = tested on: PC-3 prostate
OVCAR-5 ovarian = tested on: OVCAR-5 ovarian
MDA-MB-231 breast = tested on: MDA-MB-231 breast
HOP-92 NSCLC = tested on: HOP-92 NSCLC
TK-10 renal = tested on: TK-10 renal
HS 578T breast = tested on: HS 578T breast
HCT-15 colon = tested on: HCT-15 colon
SNB-19 CNS = tested on: SNB-19 CNS
SK-MEL-28 melanoma = tested on: SK-MEL-28 melanoma
LOX IMVI melanoma = tested on: LOX IMVI melanoma
DU-145 prostate = tested on: DU-145 prostate
CCRF-CEM leukemia = tested on: CCRF-CEM leukemia

Structure (SMILES): COc1cccc(C2=C(c3cn(C)c4ccccc34)C(=O)NC2=O)c1
- GI50 (T-47D breast): 6.82 µM
- TGI (T-47D breast): > 25 µM
- GI50 (MCF7 breast): 6.35 µM
- TGI (MCF7 breast): > 25 µM
- GI50 (UACC-62 melanoma): 11.5 µM
- TGI (UACC-62 melanoma): > 25 µM
- GI50 (U251 CNS): 10.9 µM
- TGI (U251 CNS): > 25 µM
- GI50 (NCI-H460 lung): 13.7 µM
- TGI (NCI-H460 lung): > 25 µM
- GI50 (786-0 renal): 13.4 µM
- TGI (786-0 renal): > 25 µM
- GI50 (OVCAR-3 ovarian): 9.05 µM
- TGI (OVCAR-3 ovarian): > 25 µM
- GI50 (UACC-257 melanoma): 15.7 µM
- TGI (UACC-257 melanoma): > 25 µM
- GI50 (HCC-2998 colon): > 22.1 µM
- TGI (HCC-2998 colon): > 25 µM
- GI50 (IGROV1 ovarian): 21.8 µM
- TGI (IGROV1 ovarian): > 25 µM
- GI50 (COLO 205 colon): 9.92 µM
- TGI (COLO 205 colon): > 25 µM
- GI50 (K-562 leukemia): 7.93 µM
- TGI (K-562 leukemia): > 25 µM
- GI50 (NCI/ADR-RES ovarian): 8.43 µM
- TGI (NCI/ADR-RES ovarian): > 25 µM
- GI50 (HCT-116 colon): 7.26 µM
- TGI (HCT-116 colon): > 25 µM
- GI50 (A498 renal): 3.09 µM
- TGI (A498 renal): > 25 µM
- GI50 (SF-539 CNS): 16.5 µM
- TGI (SF-539 CNS): > 25 µM
- GI50 (SN12C renal): 12.5 µM
- TGI (SN12C renal): > 25 µM
- GI50 (MOLT-4 leukemia): 8.54 µM
- TGI (MOLT-4 leukemia): > 25 µM
- GI50 (SK-MEL-5 melanoma): 4.61 µM
- TGI (SK-MEL-5 melanoma): 10.1 µM
- GI50 (UO-31 renal): 10.8 µM
- TGI (UO-31 renal): > 25 µM
- GI50 (MALME-3M melanoma): 14.2 µM
- TGI (MALME-3M melanoma): > 25 µM
- GI50 (SK-OV-3 ovarian): 12.7 µM
- TGI (SK-OV-3 ovarian): > 25 µM
- GI50 (OVCAR-8 ovarian): 8.25 µM
- TGI (OVCAR-8 ovarian): > 25 µM
- GI50 (SNB-75 CNS): 1.32 µM
- TGI (SNB-75 CNS): > 25 µM
- GI50 (SF-295 CNS): 11 µM
- TGI (SF-295 CNS): > 25 µM
- GI50 (NCI-H522 lung): 6.35 µM
- TGI (NCI-H522 lung): 25 µM
- GI50 (SF-268 CNS): 16.3 µM
- TGI (SF-268 CNS): > 25 µM
- GI50 (SK-MEL-2 melanoma): 8.79 µM
- TGI (SK-MEL-2 melanoma): > 25 µM
- GI50 (ACHN renal): 7.76 µM
- TGI (ACHN renal): > 25 µM
- GI50 (SR leukemia): 5.91 µM
- TGI (SR leukemia): > 25 µM
- GI50 (HOP-62 NSCLC): > 22.8 µM
- TGI (HOP-62 NSCLC): > 25 µM
- GI50 (NCI-H226 lung): 7.96 µM
- TGI (NCI-H226 lung): > 25 µM
- GI50 (M14 melanoma): 18.9 µM
- TGI (M14 melanoma): > 25 µM
- GI50 (A549 NSCLC): 10.8 µM
- TGI (A549 NSCLC): > 25 µM
- GI50 (RPMI-8226 leukemia): 14.1 µM
- TGI (RPMI-8226 leukemia): > 25 µM
- GI50 (KM12 colon): 8.45 µM
- TGI (KM12 colon): > 25 µM
- GI50 (RXF 393 renal): 6.43 µM
- TGI (RXF 393 renal): > 25 µM
- GI50 (HT29 colon): 7.96 µM
- TGI (HT29 colon): > 25 µM
- GI50 (SW-620 colon): 9.13 µM
- TGI (SW-620 colon): > 25 µM
- GI50 (BT-549 breast): 11.9 µM
- TGI (BT-549 breast): > 25 µM
- GI50 (HL-60(TB) leukemia): 11.2 µM
- TGI (HL-60(TB) leukemia): > 25 µM
- GI50 (NCI-H23 lung): 13.9 µM
- TGI (NCI-H23 lung): > 25 µM
- GI50 (CAKI-1 renal): 7.9 µM
- TGI (CAKI-1 renal): > 25 µM
- GI50 (OVCAR-4 ovarian): 9.61 µM
- TGI (OVCAR-4 ovarian): > 25 µM
- GI50 (MDA-MB-435): 6.38 µM
- TGI (MDA-MB-435): > 25 µM
- GI50 (PC-3 prostate): 10.2 µM
- TGI (PC-3 prostate): > 25 µM
- GI50 (OVCAR-5 ovarian): > 25 µM
- TGI (OVCAR-5 ovarian): > 25 µM
- GI50 (MDA-MB-231 breast): 17.4 µM
- TGI (MDA-MB-231 breast): > 25 µM
- GI50 (HOP-92 NSCLC): > 25 µM
- TGI (HOP-92 NSCLC): > 25 µM
- GI50 (TK-10 renal): 13.3 µM
- TGI (TK-10 renal): > 25 µM
- GI50 (HS 578T breast): 4.8 µM
- TGI (HS 578T breast): > 25 µM
- GI50 (HCT-15 colon): 5.57 µM
- TGI (HCT-15 colon): > 25 µM
- GI50 (SNB-19 CNS): > 25 µM
- TGI (SNB-19 CNS): > 25 µM
- GI50 (SK-MEL-28 melanoma): > 21.7 µM
- TGI (SK-MEL-28 melanoma): > 25 µM
- GI50 (LOX IMVI melanoma): 13 µM
- TGI (LOX IMVI melanoma): > 25 µM
- GI50 (DU-145 prostate): > 25 µM
- TGI (DU-145 prostate): > 25 µM
- GI50 (CCRF-CEM leukemia): 9.01 µM
- TGI (CCRF-CEM leukemia): > 25 µM
